How the values were obtained:
[1] = test system: Dextran Sodium Sulphate (DSS) induced colitis; experiment: DSS induced colitis in mice, changes in body weight; format: in vivo, C57BL/6 mice; conditions: CBD 50 mg/kg, Spilanthol 10 mg/kg, gavage daily for 8 days; for prevention of the weight loss effect (improvement in outcome vs vehicle): day 9; for average loss of baseline body weight: measured on day 9, vehicle 14.6%
Experimental: (§1) Colitis was induced in 10 weeks old female C57BL/6 mice (Harlan laboratories, Israel) by feeding them for 8 days with 1.5% (w/vol) DSS in the drinking water (Peer et al. Science, 319: 627-630, 2008; Dearling et al. IBD 2010; Dearling et al. IBD 2016), Kedmi et al. Nature Nanotechnology, 2018.
(§2) Mice were divided into 4 study groups (10 mice in each group): 1. Vehicle treatment group; 2. CBD 50 mg/kg treatment group; 3. Spilanthol 10 mg/kg treatment group; and 4. CBD 50 mg/kg+Spilanthol 10 mg/kg combination treatment group (herein “test combination group”). Treatment was given via gavage daily for 8 days. An additional group of 10 healthy mice served as a […] control arm. Body weight was monitored every other day. At the end of day 9 the animals were sacrificed and colon TNFα levels as well as the total length of the length of colon from the cecum to anus were assayed.
(§3) The following readouts were measured in the study as indicators for assessing the amelioration and the therapeutic efficacy of the different treatments: 1. Changes in body weight, 2. Colon's TNFα levels as measured by ELISA kits (R&D Systems, USA), 3. Total length of colon from cecum to anus, as measured by a blinded veterinary doctor.

TNFα = experiment: DSS induced colitis in mice, colon TNFα levels by ELISA; format: in vivo, C57BL/6 mice; conditions: for average colon TNFα level: CBD 50 mg/kg, Spilanthol 10 mg/kg, gavage daily 8 days, day 9, healthy 486, vehicle 1,116 pg/ml; for reduction in the TNFα increase effect / reduction of colon TNFα level comparing to vehicle / increase of colon TNFα level from baseline (healthy mice): same doses; for reduction in the TNFα increase effect / reduction of colon TNFα level comparing to vehicle: day 9; for increase of colon TNFα level from baseline (healthy mice): vehicle 130% increase
Experimental: as §1, §2, §3

[2] = test system: Dextran Sodium Sulphate (DSS) induced colitis; experiment: DSS induced colitis in mice, total length of colon from cecum to anus; format: in vivo, C57BL/6 mice; conditions: for average colon length: CBD 50 mg/kg, Spilanthol 10 mg/kg, gavage daily 8 days, day 9, healthy 7.66, vehicle 4.9 cm; for decrease of colon length from baseline (healthy mice): vehicle 36% decrease
Experimental: as §1, §2, §3

[3] = test system: alanine aminotransferase (ALT); experiment: MCD diet induced NASH in mice, ALT activity in serum; format: in vivo, FVB/NJ mice; conditions: CBD 50 mg/kg, Spilanthol 10 mg/kg, gavage daily for 21 days, MCD elevation 515 SFU/ml
Excerpt: (§4) MCD diet in mice is considered a common gold standard model for the development of NASH. In this model, the absence of methionine leads to hepatic injury, inflammation, and fibrosis, and the deficiency of choline leads to macrovesicular steatosis. The MCD diet mouse model has been used in several studies to induce NASH with or without fibrosis.
NASH was induced in 12 weeks old Male FVB/NJ mice fed with the MCD diet for 21 days. Mice were divided into 5 study groups (12 mice in each group): • 1. Healthy animal group—No induction of NASH by MCD diet. • 2. MCD diet group—with no treatment by either CBD or Spilanthol. • 3. CBD alone group—MCD diet+daily CBD 50 mg/kg treatment. • 4. Spilanthol alone group—MCD diet+daily Spilanthol 10 mg/kg treatment. • 5. […]
(§5) Treatment was given via gavage daily for 21 days. […] Body weight was monitored every other day. At the end of day 21 the animals were sacrificed, and study readouts as described below were measured.
(§6) The following readouts were measured in the study as indicators for the therapeutic efficacy of the different treatments: • 1. […] Study Readouts
1. Liver enzyme activity levels in serum: The average level of alanine aminotransferase (ALT) activity in the serum of the mice in the different treatment groups was measured using a biochemical autoanalyzer following 21 days of the. […]

[4] = test system: aspartate aminotransferase (AST); experiment: MCD diet induced NASH in mice, AST activity in serum; format: in vivo, FVB/NJ mice; conditions: CBD 50 mg/kg, Spilanthol 10 mg/kg, gavage daily for 21 days
Excerpt: as §4
(§7) NASH was induced in 12 weeks old Male FVB/NJ mice fed with the MCD diet for 21 days. Mice were divided into 5 study groups (12 mice in each group): • 1. Healthy animal group—No induction of NASH by MCD diet. • 2. MCD diet group—with no treatment by either CBD or Spilanthol. • 3. CBD alone group—MCD diet+daily CBD 50 mg/kg treatment. • 4. Spilanthol alone group—MCD diet+daily Spilanthol 10 mg/kg treatment. • 5. Combination treatment group—MCD diet+daily CBD 50 mg/kg and Spilanthol 10 mg/kg treatment.
Treatment was given via gavage daily for 21 days. That is, the MCD diet and treatment were initiated simultaneously, so as to examine the treatments' ability both to prevent and treat NASH. Body weight was monitored every other day. At the end of day 21 the animals were sacrificed, and study readouts as described below were measured.
The following readouts were measured in the study as indicators for the therapeutic efficacy of the different treatments: • 1. 1. Liver enzymes activity levels in the serum (ALT and AST). • 2. 2. […] Study Readouts […]

IL-6 = experiment: MCD diet induced NASH in mice, IL-6 serum levels by ELISA; format: in vivo, FVB/NJ mice; conditions: same doses, 21 days, healthy 88, untreated dieted 2,912 pg/ml
Excerpt: as §4, §7, §5, §6
2. […] Pro-inflammatory cytokine IL-6 levels were also measured in the serum of the mice at the end of the 21 days of the study using a commercial ELISA kit (R&D systems, USA). […]

[5] = test system: NASH induced by a methionine and choline deficient (MCD) diet; experiment: MCD diet induced NASH in mice, liver weight; format: in vivo, FVB/NJ mice; conditions: same doses, 21 days
Excerpt: as §4, §7, §5, §6
3. […] The total liver weight was also measured for all mice following the 21 days of the study. […] The average liver weight as measured in the not dieted mice group (healthy) was 1.22 grams. […]

ICR mice = conditions: acute toxicity; cited from earlier work
[6] = test system: human HEK293 kidney cells; conditions: cited from earlier work
[7] = test system: nitric oxide (NO) production; conditions: RAW 264.7 murine macrophages; cited from earlier work
Ames test = conditions: cited from earlier work
[8] = test system: RAW 264.7 murine macrophages; conditions: concentrations up to 40 μg/ml; cited from earlier work

Compound	prevention of the weight loss effect (improvement in outcome vs vehicle) [1]	average loss of baseline body weight [1]	average colon TNFα level (TNFα)	reduction in the TNFα increase effect (TNFα)	reduction of colon TNFα level comparing to vehicle (TNFα)	increase of colon TNFα level from baseline (healthy mice) (TNFα)	average colon length [2]	decrease of colon length from baseline (healthy mice) ([2]; same doses)	improvement in outcome (colon shortening effect) ([2]; same doses, vs vehicle)	reduction of the elevated ALT serum activity levels [3]	reduction in AST enzyme activity levels in serum [4]	reduction of the elevated IL-6 serum levels (IL-6)	reduction in liver weight loss [5]	median lethal dose (LD50) (ICR mice)	cytotoxic effect, mean inhibitory concentration (IC50) [6]	effect on nitric oxide (NO) production [7]	mutagenic effects (Ames test; Ames test)	antimutagenic effects (Ames test; at 25 and 50 μg/ml)	cytotoxic effects [8]	reduction of the colon shortening effect ([2]; same doses, vs vehicle)
C/C=C/C=C\CC/C=C/C(=O)NCC(C)C [Spilanthol, (2E,6Z,8E)-N-isobutyl-2,6,8-decatrienamide]	0%	14.6%	980 pg/mL	21.5%	136 pg/mL	101%	4.9 cm	36%	0%	no effect	neither CBD alone, nor Spilanthol alone has any significant effect	ineffective	no effect	113 mg/kg	260 µg/mL	stimulatory effect	No mutagenic effects	antimutagenic effects of affinin were observed	No cytotoxic effects	
C=C(C)C1CCC(C)=CC1c1c(O)cc(CCCCC)cc1O (stereo not drawn) [CBD, 2-[3-methyl-6-(1-methylethenyl)-2-cyclohexen-1-yl]-5-pentyl-1,3-benzenediol]	44%	8.2%	928 pg/mL	30%	188 pg/mL	91%	5.31 cm	30.7%	14.9%	16.5%	neither CBD alone, nor Spilanthol alone has any significant effect	13.5%	38.3%							0.41 cm
